In data set [1] the test system is C57BL/6NTac mice. Kind of data set: NSF in CORT model. The format is in vivo. The note with it: ketamine 10 and 90 mg kg^−1 before CORT. The procedure:
Experiment 5 (Pre-ketamine and pre-fluoxetine corticosterone (CORT)): C57BL16NTac mice were injected with ketamine (10, 30, 90 mg kg^−1, i.p.) 1 week before the start of CORT, or administered fluoxetine (18 mg kg^−1 per day) in the drinking water for 3 weeks before the start of CORT. Ketamine was purchased from Merial (100 mg/ml stock solution). Fluoxetine hydrochloride (160 μg/mL, equivalent to 18 mg kg^−1 per day in the drinking water) was purchased from Anawa Trading (Zurich, Switzerland) and dissolved in 0.45% hydroxypropyl-β-cyclodextrin (β-CD) (Sigma-Aldrich, Saint-Quentin Fallavier, France) solution. Following ketamine or fluoxetine treatment, CORT was administered for 3 weeks in the drinking water. CORT (4-pregnen-11b-DIOL-3 20-DIONE 21-hemisuccinate) (35 μg/ml) from. Sigma Aldrich (Saint-Quentin Fallavier, France) was dissolved in vehicle (0.45% β-CD). Control animals received vehicle (0.45% β-CD) throughout the duration of the experiment. […]
Testing was performed as previously described (A13). […] The latency of the mice to begin eating was recorded. Immediately after the latency was recorded, the food pellet was removed from the arena. The mice were then placed into a cage and the amount of food consumed in 5 min was measured (home cage consumption), followed by an assessment of post-restriction weight. […]

Data set [2] has as its system C57BL/6NTac mice. Kind of data set: FST in chronic corticosterone (CORT) model. The format is in vivo.
Data set [3] deals with 129S6/SvEvTac mice. Kind of data set: 1-shock contextual fear conditioning (CFC) in SD experiments. The note with it: ketamine after SD. Format: in vivo. The procedure: The 1-shock CFC procedure was performed as previously published (A15). Briefly, mice were placed into context A and administered a 2-s shock (0.75 mA) 180 s later. Mice were removed from the context 15 s following the termination of shock (at 197 s). For context retrieval, mice were placed back into context A for 180 s. For alternate contexts, mice were placed into the contexts for 180 s.

Data set [4] relates to animals. The note with it: in vivo, ip; cited from earlier work.
For data set [5] the following is noted: in rodents; cited from earlier work.
Data set [6] can be described thus: Body weight in CORT model. The format is in vivo, mice. The note with it: ketamine 90 mg kg^−1 single injection or fluoxetine 18 mg kg^−1 for 3 weeks, before CORT.
The test system of data set [7] is 129S6/SvEvTac mice. Kind of data set: Forced swim test (FST) in social defeat (SD) model. Format: in vivo. The procedure: Experiment 1 (Pre-ketamine in social defeat (SD)): At 8 weeks of age, a single injection of saline (0.9% NaCl) or ketamine (K) (10, 30, or 90 mg kg^−1) (Ketaset III, Ketamine HCl, Fort Dodge Animal Health, Forth Dodge, Iowa) was administered. Ketamine was prepared in physiological saline and all injections were administered intraperitoneally (i.p.) in volumes of 0.1 cc per […]. […] At 9 weeks of age, 1 week following this injection, SD was started.
24 h after the last bout of SD, a single injection of saline or ketamine (30 mg kg^−1) was administered (mice were 11 weeks old). The forced swim test (PST) was administered 2 h following the injection.
Experiment 3 (Pre-fluoxetine in SD): At 6 weeks of age, fluoxetine hydrochloride (Fix) (BioTrend Chemicals AG, B6197) was administered in the drinking water (18 mg kg^−1/day) for 3 weeks before the start of SD. Starting at 9 weeks of age, SD was then administered for 2 weeks without vehicle or Flx in the drinking water.
Adult aggressor CD-1 male mice were single-housed in Macrolon® polycarbonate resin cages (15.25 in×7.8 in×9.5 in) (Animal Care Systems, Inc., Centennial, Colo.). Male 129S6/SvEvTac mice (9 weeks of age) were subsequently placed into the resident. CD-1 mouse's cage. Three antagonistic encounters were allowed between the CD-1 mouse and the intruder. Each of these encounters typically lasted less than 5 min. Following the encounters, mice were separated by a polished stainless steel cage divider (Animal Care Systems, Inc., Centennial, Colo., P/N C79171), which allowed for olfactory and auditory communication, but limited visual or tactile contact. The partition was removed daily for 2 weeks and 3 antagonistic encounters were allowed between the mice each day. This procedure consistently yielded a submissive phenotype in the experimental intruder mice. Control (Ctrl) mice were group housed 4 to 5 per cage in Macrolon® polycarbonate resin cages without dividers.
The FST was administered as previously described (A11). Briefly, mice were placed into clear plastic buckets 20 cm in diameter and 23 cm deep filled ⅔ of the way with 22° C. water. Mice were videotaped, from the side for 6 min and were exposed to the swim test on 2 consecutive days. For the SI) experiments, scoring was performed using an automated Viewpoint Videotrack software package (http://www.viewpoint.fr/en/a/anxiety-and-depression). For the CORT experiments, automated scoring was done using the automated X'PERT EST software suite (Bioseb, Vitrolles, France). The dependent variable was immobility.

SMILES strings stand for the structures. “Also recorded” adds a separate entry of the source.

Regarding `CNC1(c2ccccc2Cl)CCCCC1=O` (racemic) [ketamine, (RS)-2-(2-chlorophenyl)-2-(methylamino)cyclohexanone], the “latency to feed in NSF” value in data set [1] was “prevented the chronic CORT-induced increase in latency to feed; also recorded: decreased the latency to feed”. The “most effective dose in protecting against depressive-like behavior following chronic CORT” value in data set [2] (C57BL/6NTac mice, doses tested 10, 30, 90 mg kg^−1) amounted to 90 mg/kg. The “persistence of ketamine-induced resilience post-injection” value is at least 4 weeks in data set [2] (CORT model) and “at least 3 weeks” in data set [7] (SD model). Besides, the “immobility time on day 2 in the FST” value in data set [2] (ketamine 90 mg kg^−1 or fluoxetine 18 mg kg^−1/day, before 3 weeks of CORT) is “decreased immobility time; also recorded: significantly reduced immobility”. Further, in data set [3], the “CFC learning (freezing)” value is reported as “did not impact CFC learning; also recorded: comparable levels of freezing”. In addition, the “reaction time to the hot plate test” value in data set [4] is “increased reaction time to the hot plate test”. For the same molecule, the half-life entry in data set [5] is reported as “only a few hours”. Moreover, in data set [6], the “CORT-induced increase in body weight” value was “prevented the CORT-induced increase in body weight”. In addition, the “immobility time, day 2 of FST” value in data set [7] (Ctrl (group housed) mice, ketamine 30 mg kg^−1 single i.p. injection, vs Ctrl-Sal) was “equal levels of immobility time; also recorded: did not differ from each other”; in data set [7] (Ctrl mice, ketamine 30 mg kg^−1 in the post-SD design), “did not display different immobility time”; in data set [7] (SD mice, ketamine 30 mg kg^−1 single injection 1 week before 2 weeks of SD, vs SD-Sal), “significantly decreased immobility time; also recorded: significantly less immobility time”. Further, the “immobility time in FST” value was “did not differ in immobility time” in data set [7] (SD mice, ketamine 10 mg kg^−1 before SD, vs SD-Sal) and “did not differ in immobility time” in data set [7] (SD mice, ketamine 90 mg kg^−1 before SD, vs SD-Sal). Further, in data set [7] (SD mice, ketamine 30 mg kg^−1 before SD, vs SD-Sal), the “average immobility time for minutes 3 to 6 of FST” value is listed as “less than the SD-Sal mice; also recorded: decreased immobility”. Also, the “dose found to be effective in the SD paradigm” value in data set [7] (doses tested 10, 30, 90 mg kg^−1) came out at 30 mg/kg. In addition, the “immobility time, minutes 3 to 6 averaged” value in data set [7] (ketamine given after SD) is reported as “did not decrease immobility time”.
